Read-outs that look alike come from different tables or passages of the source.
Biological target: T1, human RXFP1 (Homo sapiens, UniProt Q9HBX9)
T1 sequence (Q9HBX9 1-757): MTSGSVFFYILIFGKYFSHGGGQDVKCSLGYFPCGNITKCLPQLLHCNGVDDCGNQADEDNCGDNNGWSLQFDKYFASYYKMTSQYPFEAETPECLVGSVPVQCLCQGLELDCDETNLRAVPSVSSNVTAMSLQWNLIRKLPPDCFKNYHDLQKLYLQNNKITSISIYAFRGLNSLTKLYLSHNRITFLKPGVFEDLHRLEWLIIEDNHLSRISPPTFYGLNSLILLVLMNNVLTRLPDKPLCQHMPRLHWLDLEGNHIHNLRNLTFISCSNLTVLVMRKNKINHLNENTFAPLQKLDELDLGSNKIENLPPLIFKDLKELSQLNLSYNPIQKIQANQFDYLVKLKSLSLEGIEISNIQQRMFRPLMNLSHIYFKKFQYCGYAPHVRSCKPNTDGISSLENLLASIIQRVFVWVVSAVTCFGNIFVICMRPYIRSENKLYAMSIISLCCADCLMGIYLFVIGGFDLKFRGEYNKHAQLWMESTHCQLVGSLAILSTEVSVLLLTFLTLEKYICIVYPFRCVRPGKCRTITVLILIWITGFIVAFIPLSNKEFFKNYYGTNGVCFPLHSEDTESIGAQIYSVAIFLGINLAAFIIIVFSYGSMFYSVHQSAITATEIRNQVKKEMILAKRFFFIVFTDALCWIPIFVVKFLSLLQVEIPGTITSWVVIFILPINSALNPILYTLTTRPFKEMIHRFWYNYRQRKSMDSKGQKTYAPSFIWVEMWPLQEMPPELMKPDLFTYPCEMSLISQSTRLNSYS
Assay: RXFP1 Hu cAMP (Test A)
Type: cell-based
Design: expressed in transfected cells; host or cells: Jump-In T-REx CHO-K1 cells (ThermoFisher), induced with 10 ng/ml doxycycline for 24 h
Summary of the method: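 Competitive HTRF cAMP readout (2 h, room temperature) in CHO-K1 cells stably expressing human RXFP1, induced with 10 ng/ml doxycycline for 24 h; IBMX 0.5 mM final.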

[1] = RXFP1 Hu cAMP, read-out: Test A EC50

Row | Molecule | Test A Sinf (RXFP1 Hu cAMP) [%] | EC50 [1] [nM] | EC50 (Test A EC50, RXFP1 Hu cAMP) [nM]
1 | COc1cc(F)c(-c2nc(C(=O)O)co2)cc1C(=O)N[C@H]1[C@@H](C(=O)Nc2cccc(S(=O)(=O)C(F)(F)F)c2)[C@@H]2C=C[C@H]1C2 (racemic) [Example 275, rac-2-(2-Fluoro-4-methoxy-5-(((1R,2R,3S,4S)-3-((3-((trifluoromethyl)sulfonyl)phenyl)carbamoyl)bicyclo[2.2.1]hept-5-en-2-yl)carbamoyl)phenyl)oxazole-4-carboxylic acid] | 83 | 11000 | –
2 | COc1cc(F)c(OCCCCCCCCC(=O)O)cc1C(=O)N[C@@H]1[C@H]2CC[C@H](C2)[C@@H]1C(=O)Nc1cccc(S(=O)(=O)C(F)(F)F)c1 [Example 437] | 104 | 950 | –
3 | COc1cc(F)c(OC[C@H]2CC[C@@H](C(=O)O)CC2)cc1C(=O)N[C@@H]1[C@H]2CC[C@H](C2)[C@@H]1C(=O)Nc1cccc(S(=O)(=O)C(F)(F)F)c1 [Example 440] | 111 | 1200 | –
4 | COc1cc(F)c(O[C@H]2CC[C@@H](C(=O)O)CC2)cc1C(=O)N[C@H]1[C@H]2CC[C@H](C2)[C@H]1C(=O)Nc1cccc(S(F)(F)(F)(F)F)c1 [Example 510, (1R,4s)-4-(2-Fluoro-4-methoxy-5-(((1S,2S,3R,4R)-3-((3-(pentafluoro-6-sulfaneyl)phenyl)carbamoyl)bicyclo[2.2.1]heptan-2-yl)carbamoyl)phenoxy)cyclohexane-1-carboxylic acid] | 63 | 1600 | –
5 | COc1cc(C#N)c(O[C@H]2CC[C@@](C)(C(=O)O)CC2)cc1C(=O)Nc1cc(Cl)ccc1C(=O)NCC1(F)CCC1 [Example 160] | 125 | 160 | –
6 | COc1cc(C#N)c(O[C@H]2CC[C@@](C)(C(=O)O)CC2)cc1C(=O)Nc1cc(C)ccc1C(=O)NCC1(F)CCC1 [Example 172] | 125 | 980 | –
7 | COc1cc(C#N)c(O[C@H]2CC[C@@](C)(C(=O)O)CC2)cc1C(=O)N[C@@H]1[C@H]2CC[C@H](C2)[C@@H]1C(=O)N[C@H]1CCCC[C@H]1CC(F)(F)F [Example 134] | 104 | 44 | –
8 | COc1cc(F)c(-c2ccc(C(=O)O)c(N(C)C)c2)cc1C(=O)N[C@@H]1[C@H]2CC[C@H](C2)[C@@H]1C(=O)Nc1cccc(S(=O)(=O)C(F)(F)F)c1 [Example 239] | 100 | 130 | –
9 | CCc1cc(OC)c(C(=O)N[C@@H]2[C@H]3CC[C@H](C3)[C@@H]2C(=O)NC23CC(F)(C2)C3)cc1O[C@H]1CC[C@@](C)(C(=O)O)CC1 [Example 383] | 89 | 120 | –
10 | COc1cc(F)c(O[C@H]2C[C@@H](CC(=O)O)C2)cc1C(=O)N[C@@H]1[C@@H]2CC[C@@H](C2)[C@@H]1C(=O)Nc1cccc(S(=O)(=O)C(F)(F)F)c1 [Example 475, 2-((1S,3s)-3-(2-Fluoro-4-methoxy-5-(((1R,2R,3S,4S)-3-((3-((trifluoromethyl)sulfonyl)phenyl)carbamoyl)bicyclo[2.2.1]heptan-2-yl)carbamoyl)phenoxy)cyclobutyl)acetic acid] | 100 | 200 | –
11 | (1R,4s)-4-(2-Cyano-4-methoxy-5-(((1S*,2R*)-2-(((1-methylcyclobutyl)methyl)carbamoyl)cyclobutyl)carbamoyl)phenoxy)-1-methylcyclohexane-1-carboxylic acid [Example 573] | 94 | – | –
12 | (1R,4s)-4-(2-Fluoro-5-(((3S*,4R*)-4-((4-fluoro-3-(pentafluoro-λ6-sulfaneyl)phenyl)carbamoyl)tetrahydrofuran-3-yl)carbamoyl)-4-methoxyphenoxy)-1-methylcyclohexane-1-carboxylic acid [Example 565] | 113 | – | –
13 | COc1cc(C#N)c(O[C@H]2CC[C@@](C)(C(=O)O)CC2)cc1C(=O)N[C@@H]1[C@H]2CC[C@H](C2)[C@@H]1C(=O)NC1CCCC1 [Example 139] | 95 | 160 | –
14 | COc1cc(F)c(OCc2cccc(CC(=O)O)c2)cc1C(=O)N[C@H]1[C@@H](C(=O)Nc2cccc(S(=O)(=O)C(F)(F)F)c2)[C@@H]2C=C[C@H]1C2 (racemic) [Example 453] | 155 | 2000 | –
15 | (1R,4s)-4-(2-Fluoro-4-methoxy-5-(((3S*,4R*)-4-(neopentylcarbamoyl)tetrahydrofuran-3-yl)carbamoyl)phenoxy)-1-(hydroxymethyl)cyclohexane-1-carboxylic acid [Example 579] | 120 | – | –
16 | COc1cc(F)c(-c2ccc([C@@H](C(=O)O)N(C)C)cc2)cc1C(=O)N[C@@H]1[C@H]2CC[C@H](C2)[C@@H]1C(=O)Nc1cccc(S(=O)(=O)C(F)(F)F)c1 (racemic) [Example 295] | 100 | 500 | –
17 | COc1cc(F)c(O[C@H]2CC[C@@](C)(C(=O)O)CC2)cc1C(=O)N[C@H]1[C@@H](C(=O)NCC2(C)CCC2)[C@H]2CC[C@@H]1O2 (racemic) [Example 331, (1R,4s)-4-(2-Fluoro-4-methoxy-5-(((1SR,2SR,3RS,4RS)-3-(((1-methylcyclobutyl)methyl)carbamoyl)-7-oxabicyclo[2.2.1]heptan-2-yl)carbamoyl)phenoxy)-1-methylcyclohexane-1-carboxylic acid] | 90 | 260 | –
18 | COc1cc(F)c(OCCCCCC(=O)O)cc1C(=O)N[C@H]1[C@@H](C(=O)Nc2cccc(S(=O)(=O)C(F)(F)F)c2)[C@@H]2C=C[C@H]1C2 (racemic) [Example 455] | 91 | 160 | –
19 | COc1cc(C#N)c(O[C@H]2CC[C@@](C)(C(=O)O)CC2)cc1C(=O)N[C@@H]1[C@H]2CC[C@H](C2)[C@@H]1C(=O)NC[C@@H](F)c1ccccc1 [Example 131] | 99 | 84 | –
20 | COc1cc(F)c(O[C@H]2CC[C@@](C)(C(=O)O)CC2)cc1C(=O)NC1C(O)CCC1C(=O)Nc1cccc(S(=O)(=O)C(F)(F)F)c1 (single isomer, unassigned) [Example 528, (1R,4s)-4-(2-Fluoro-5-(((1S*,2S*,5S*)-2-hydroxy-5-((3-((trifluoromethyl)sulfonyl)phenyl)carbamoyl)cyclopentyl)carbamoyl)-4-methoxyphenoxy)-1-methylcyclohexane-1-carboxylic acid] | – | > 40000 | –
21 | COc1cc(F)c(OC2CCC(O)(C(=O)O)CC2)cc1C(=O)NC1C2CCC(C2)C1C(=O)Nc1cccc(S(=O)(=O)C(F)(F)F)c1 [Example 582, (1R,4r)-4-(2-Fluoro-4-methoxy-5-(((1R*,2R*,3S*,4S*)-3-((3-((trifluoromethyl)sulfonyl)phenyl)carbamoyl)bicyclo[2.2.1]heptan-2-yl)carbamoyl)phenoxy)-1-hydroxycyclohexane-1-carboxylic acid] | 104 | 29 | –
22 | COc1cc(F)c(O[C@H]2CC[C@@](C)(C(=O)O)CC2)cc1C(=O)N[C@@H]1COCC[C@@H]1C(=O)Nc1cccc(S(=O)(=O)C(F)(F)F)c1 (racemic) [Example 340] | 100 | 1800 | –
23 | COc1cc(F)c(O[C@H]2CC[C@@](C)(C(=O)O)CC2)cc1C(=O)N[C@@H]1[C@H]2CC[C@H](C2)[C@@H]1C(=O)NC1CCC1 [Example 598] | 99 | 890 | –
24 | COc1cc(C#N)c(O[C@H]2CC[C@@](C)(C(=O)O)CC2)cc1C(=O)N[C@@H]1[C@H]2CC[C@H](C2)[C@@H]1C(=O)NCCC1CC1 [Example 133] | 100 | 450 | –
25 | COc1cc(C#N)c(O[C@H]2CC[C@@](C)(C(=O)O)CC2)cc1C(=O)N[C@@H]1[C@H]2CC[C@H](C2)[C@@H]1C(=O)NC[C@@H](C)c1ccccc1 [Example 125] | 116 | 16 | –
26 | COc1cc(F)c(O[C@H]2CC[C@@](C)(c3noc(=O)[nH]3)CC2)cc1C(=O)N[C@@H]1[C@H]2CC[C@H](C2)[C@@H]1C(=O)NCC1(C)CCC1 [Example 418, (1R,2S,3R,4S)-3-(4-fluoro-2-methoxy-5-(((1s,4S)-4-methyl-4-(5-oxo-4,5-dihydro-1,2,4-oxadiazol-3-yl)cyclohexyl)oxy)benzamido)-N-((1-methylcyclobutyl)methyl)bicyclo[2.2.1]heptane-2-carboxamide] | 100 | – | 64
27 | COc1cc(F)c(-c2nc(C(=O)O)cs2)cc1C(=O)N[C@H]1[C@@H](C(=O)Nc2cccc(S(=O)(=O)C(F)(F)F)c2)[C@@H]2C=C[C@H]1C2 (racemic) [Example 286] | 29 | – | –
